In publication PMC9054772 (RSC Advances, 2020):

Molecular target: T1, HsPKS1 (Huperzia serrata, UniProt A3E7Z7)
T1 sequence (A3E7Z7 1-399): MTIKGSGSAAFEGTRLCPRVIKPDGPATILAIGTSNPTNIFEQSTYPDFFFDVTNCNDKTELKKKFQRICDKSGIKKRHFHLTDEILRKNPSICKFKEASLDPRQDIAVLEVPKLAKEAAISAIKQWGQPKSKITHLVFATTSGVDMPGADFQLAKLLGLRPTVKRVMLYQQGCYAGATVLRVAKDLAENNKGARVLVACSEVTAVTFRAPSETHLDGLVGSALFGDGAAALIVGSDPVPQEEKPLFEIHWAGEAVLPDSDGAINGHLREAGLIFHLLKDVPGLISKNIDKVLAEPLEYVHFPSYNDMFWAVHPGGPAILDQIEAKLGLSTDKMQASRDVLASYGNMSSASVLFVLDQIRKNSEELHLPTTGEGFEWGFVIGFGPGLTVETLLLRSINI
Test: product formation by HPLC / LC-MS
Assay type: biochemical
Details: with malonyl-CoA

Structure (SMILES): CC(C)(COP(=O)(O)OP(=O)(O)OC[C@H]1O[C@@H](n2cnc3c(N)ncnc32)[C@H](O)[C@@H]1OP(=O)(O)O)[C@@H](O)C(=O)NCCC(=O)NCCSC(=O)Cc1ccccn1 [2-pyridylacetyl-CoA]
- product formation by HPLC / LC-MS (library screen): Only two type III PKSs (HsPKS1 and HsPKS3) from H. serrata
